Paper PMC7460559 (International Journal of Molecular Sciences, 2020)
Converted amounts (≈) assume the structure as drawn. Residues, ends and D or L forms follow the SMILES beside them. No end group written: not given here.

Key:
[1] = Reverse-phase HPLC retention time (hydrophobicity); assay type: physicochemical; settings: mean retention time, Jupiter proteo C18 column (250 × 4.6 mm, 90 Å, 4 μm), 280 nm, used by the paper as measure of hydrophobicity
Description: Peptides were synthesized by using a 9-fluorenylmethoxycarbonyl (Fmoc) solid-phase method on Rink amide 4-methyl benzhydrylamine resin (Novabiochem, Darmstadt, Germany) (0.55 mmol/g) using a Liberty microwave peptide synthesizer (CEM, Matthews, NC, USA). To generate N-terminal fluorescently-labeled peptides, resin-bound peptides were treated with 20% (v/v) piperidine in dimethylformamide (DMF) to remove the Fmoc protection groups from the N-terminal amino acids. Rhodamine-SE dye was incubated with resin-bound peptide in DMF (3–4 eq.) containing 5% (v/v) diisopropylethylamine, and gently mixing for 24 h at room temperature in the dark. The resin was washed with dichloromethane (DCM). The peptides were cleaved from the corresponding resins, precipitated with ether, and extracted. The crude peptides were purified by reverse-phase preparative high-performance liquid chromatography (HPLC) on a Jupiter C18 column (250 × 21.2 mm, […], 300 Å; Phenomenex, Torrance, CA, USA) using a 0–60% acetonitrile gradient in water with 0.05% trifluoroacetic acid. The purity of the extracted peptide was then determined by analytical reversed-phase HPLC (wavelength of 280 nm) using a Jupiter proteo C18 column (250 × 4.6 mm, 90 Å, 4 μm). The molecular masses of the peptides were confirmed on a matrix-assisted laser desorption ionization mass spectrometer (Kratos Analytical, Kyoto, Japan).

[2] = test system: sheep red blood cells (sheep RBCs); test: Hemolysis; assay type: cell-based; settings: data overlapped with those of HPA3NT3-A2
Description: Fresh samples of sheep blood defibrinated cells (MBcell, Seoul, Korea) were centrifuged at 800× g and washed with phosphate-buffered saline (PBS) until the supernatant was clear. Serial dilutions (two-fold) of peptide prepared in PBS were plated, and sheep red blood cells (sheep RBCs) were added to a final concentration of 8% (v/v) in a 96-well plate. The samples were incubated for 1 h at 37 °C with gentle agitation and then centrifuged at 800× g for 10 min. The absorbance of the supernatant was measured at 414 nm; each measurement was performed in triplicate and the percentage hemolysis was calculated using Equation (1):% hemolysis = [(Abs414 in the peptide solution − Abs414 in PBS)/(Abs414 in 0.1% Triton-X100 − Abs414 in PBS)] × 100(1) where 100% hemolysis was defined as the absorbance of sheep RBCs containing 1% Triton X-100 and zero hemolysis was the value measured for sheep RBCs alone in PBS [10].

S. aureus ATCC 25923 = test: Resistance development assay; assay type: cell-based, Staphylococcus aureus; settings: S. aureus ATCC 25923, 12 passages from 1/2 MIC well, DMEM supplemented with 10% fetal bovine serum, MICs in duplicate
Description: Daily MICs were determined over 15 days for each agent using cells collected from the well determined as having half the MIC (1/2 MIC well). Briefly, cells from the 1/2 MIC well from the preceding day’s assay plate were resuspended and the OD600 was measured. The suspensions were then adjusted to achieve a bacterial concentration of 5 × 10^5 cfu/mL in DMEM supplemented with 10% fetal bovine serum and then mixed with each agent at the appropriate concentration. All MICs were determined in duplicate [26].

[3] = test system: PC/SM (2:1, w/w) small unilamellar vesicle (SUV) liposomes; test: Binding assay with SUV liposomes by CD; settings: 50 μM peptide, 300 μM SUVs, 10 mM HEPES buffer (pH 7.4), 25 °C, n = 3
Description: (§1) SUVs were prepared by drying of phosphatidylethanolamine (PE)/phosphatidyl glycerol (PG) (7:3, w/w) or phosphatidylcholine (PC)/sphingomyelin (SM) (2:1, w/w) under nitrogen, suspension by vortex mixing in 10 mM HEPES buffer (pH 7.4), and sonication. To prepare the SUVs, the lipid diffusions were sonicated in a bath-type sonicator for 20 min. Next, the suspensions of preparation vesicles were extruded 10 times through polycarbonate membranes ([…] pores). The concentration of SUV liposomes was determined using a standard phosphate assay. Circular dichroism (CD) spectra were recorded at 25 °C on a Jasco 810 spectropolarimeter. The peptide (50 μM) solution was added to 400 μL of 10 mM HEPES buffer or to 300 μM SUVs. At least three scans were acquired at 250 to 190 nm.

[4] = test system: PE/PG (7:3, w/w) small unilamellar vesicle (SUV) liposomes; test: Binding assay with SUV liposomes by CD; settings: 50 μM peptide, 300 μM SUVs, 10 mM HEPES buffer (pH 7.4), 25 °C, n = 3
Description: as §1

E. coli CCARM 1229 = test: MIC assay, drug-resistant strain; assay type: cell-based; settings: Escherichia coli, CCARM1229, peptides assayed in DMEM supplemented with 10% FBS
Excerpt: (§2) Escherichia coli (ATCC 25922) and S. aureus (ATCC 25923) were obtained from American Type Culture Collection (Manassas, VA, USA). Escherichia coli CCARM 1229, E. coli CCARM 1238, S. aureus CCARM 3089, S. aureus 3114, Salmonella typhimurium CCARM 8009, and S. typhimurium CCARM 8013 were obtained from the culture collection of antibiotic-resistant microbes at Seoul Women’s University, Republic of Korea. Pseudomonas aeruginosa 3547 and P. aeruginosa 4007 were resistant strains isolated from hospital patients with otitis media at Chonnam National University, Republic of Korea. The rifampin-resistant S. aureus PBEL 1 and vancomycin-resistant S. aureus PBEL 2 strains used in this study were generated from wild-type S. aureus (ATCC 25923).
(§3) Bacterial cells were incubated within culture media at 37 °C. The peptide antimicrobial activity was determined by the minimal inhibition concentration (MIC) assay. […] The samples were incubated for 18–24 h at 37 °C. After incubation, the minimum inhibitory concentrations (MICs) of the peptides were determined by measuring the absorbance at an optical density of 600 nm (OD600).

E. coli CCARM 1238 = test: MIC assay, drug-resistant strain; assay type: cell-based; settings: Escherichia coli, CCARM1238, peptides assayed in DMEM supplemented with 10% FBS
Excerpt: as §2, §3

P. aeruginosa 3547 = test: MIC assay, drug-resistant strain; assay type: cell-based; settings: Pseudomonas aeruginosa; P. aeruginosa 3547, resistant isolate from otitis media patients; peptides in DMEM supplemented with 10% FBS
Excerpt: as §2, §3

P. aeruginosa 4007 = test: MIC assay, drug-resistant strain; assay type: cell-based; settings: Pseudomonas aeruginosa; P. aeruginosa 4007, resistant isolate from otitis media patients; peptides in DMEM supplemented with 10% FBS
Excerpt: as §2, §3

S. aureus CCARM 3089 = test: MIC assay, drug-resistant strain; assay type: cell-based; settings: Staphylococcus aureus, CCARM3089, peptides in DMEM supplemented with 10% FBS
Excerpt: as §2, §3

S. aureus CCARM 3114 = test: MIC assay, drug-resistant strain; assay type: cell-based; settings: Staphylococcus aureus, CCARM3114, peptides in DMEM supplemented with 10% FBS
Excerpt: as §2, §3

S. aureus PBEL 1 = test: MIC assay, drug-resistant strain; assay type: cell-based; settings: Staphylococcus aureus, PBEL1; S. aureus PBEL 1, rifampin-resistant (induced); peptides in DMEM supplemented with 10% FBS
Excerpt: as §2, §3

S. aureus PBEL 2 = test: MIC assay, drug-resistant strain; assay type: cell-based; settings: Staphylococcus aureus, PBEL2; S. aureus PBEL 2, vancomycin-resistant (induced); peptides in DMEM supplemented with 10% FBS
Excerpt: as §2, §3

[5] = test system: S. typhimurium CCARM 8009; test: MIC assay, drug-resistant strain; assay type: cell-based; settings: Salmonella enterica, peptides in DMEM supplemented with 10% FBS
Excerpt: as §2, §3

[6] = test system: S. typhimurium CCARM 8013; test: MIC assay, drug-resistant strain; assay type: cell-based; settings: Salmonella enterica, peptides in DMEM supplemented with 10% FBS
Excerpt: as §2, §3

[7] = test system: HaCa T (human keratinocyte) cells; settings: at 250 μM; cited from earlier work
Description: (§4) Previously, we determined the properties of HPA3NT3 as an antimicrobial peptide. This peptide has an amphipathic helical structure, strong antimicrobial activity, and cytotoxic ability at 250 μM (sheep RBCs, 68.4%; HaCaT cells, 85.1%). This peptide was designed to have low cytotoxicity at higher concentrations and was generated by substituting phenylalanine with alanine and lysine (F1A, F8A, and N13K) to enhance its antimicrobial activity by increasing the net positive charge.

[8] = test system: sheep red blood cells (sheep RBCs); settings: at 250 μM; cited from earlier work
Description: as §4

Compound | Retention Time [1] [min] | increase in MIC (resistance development) (S. aureus ATCC 25923) | interaction with PC/SM liposome (CD) [3] | interaction with PE/PG liposome (CD) [4] | MIC (P. aeruginosa 3547) [µM] | MIC (P. aeruginosa 4007) [µM] | MIC (S. aureus CCARM 3089) [µM] | MIC (S. aureus CCARM 3114) [µM] | MIC (S. aureus PBEL 1) [µM] | MIC (S. aureus PBEL 2) [µM] | MIC [5] [µM] | MIC [6] [µM] | other results
CC[C@H](C)[C@H](NC(=O)[C@@H](CCCCN)NC(=O)[C@@H](CCCCN)NC(=O)[C@H](C)NC(=O)[C@H](CC(C)C)NC(=O)[C@@H](CCCCN)NC(=O)[C@@H](CCCCN)NC(=O)[C@H](CC(C)C)NC(=O)[C@H](CCCNC(=N)N)NC(=O)[C@@H](CCCCN)NC(=O)[C@H](C)N)C(=O)N[C@@H](Cc1c[nH]c2ccccc12)C(=O)N[C@H](CCCCN)C(=O)N[C@@H](Cc1c[nH]c2ccccc12)C(=O)N[C@H](CCCCN)C(N)=O [HPA3NT3-A2D] (HELM PEPTIDE1{A.[dK].R.L.[dK].[dK].L.A.[dK].[dK].I.W.[dK].W.[dK].[am]}$$$$V2.0; N-terminus assumed) | 11.97 | no change in the MIC | low levels of α-helical structures | low levels of α-helical structures | – | – | – | – | – | – | – | – | hemolysis against sheep RBCs (in words) [2]: non-hemolysis
CC[C@H]1OC(=O)[C@H](C)[C@@H](O[C@H]2C[C@@](C)(OC)[C@@H](O)[C@H](C)O2)[C@H](C)[C@@H](O[C@@H]2O[C@H](C)C[C@H](N(C)C)[C@H]2O)[C@](C)(O)C[C@@H](C)C(=O)[C@H](C)[C@@H](O)[C@]1(C)O [Ery, erythromycin] | – | – | – | – | > 512 | > 512 | > 512 | > 512 | > 512 | > 512 | 256 (≈ 188 µg/mL) | 128 (≈ 93.9 µg/mL) | MIC (E. coli CCARM 1229): 256 µM (≈ 188 µg/mL); MIC (E. coli CCARM 1238): 256 µM (≈ 188 µg/mL)
CO[C@H]1/C=C/O[C@@]2(C)Oc3c(C)c(O)c4c(O)c(c(/C=N/N5CCN(C)CC5)c(O)c4c3C2=O)NC(=O)/C(C)=C\C=C\[C@H](C)[C@H](O)[C@@H](C)[C@@H](O)[C@@H](C)[C@H](OC(C)=O)[C@@H]1C [rifampin] | – | 8192 fold | – | – | – | – | – | – | – | – | – | – | –
CC1(C)S[C@@H]2[C@H](NC(=O)[C@H](N)c3ccccc3)C(=O)N2[C@H]1C(=O)O [Amp, ampicillin] | – | – | – | – | > 512 | > 512 | > 512 | > 512 | > 512 | > 512 | > 512 | > 512 | –
FKRLKKLFKKIWNWK-NH2 [HPA3NT3] | 20.94 | – | strongest interaction and α-helical structure | strongest interaction and α-helical structure | – | – | – | – | – | – | – | – | toxicity against HaCaT cells [7]: 85.1%; hemolytic activity against sheep RBCs [8]: 68.4%
O=C(O)c1cn(C2CC2)c2cc(N3CCNCC3)c(F)cc2c1=O [Cip, ciprofloxacin] | – | – | – | – | > 512 | > 512 | > 512 | > 512 | > 512 | > 512 | – | – | –
